Among the data in patent publication US12655116B2, “Substituted isophthalic acid diamides” (Bayer Aktiengesellschaft, priority 2020, dated 2026) are pest or weed control values, retold here.

For one test, the system named is AMARE. The experiment in a line: Pre-emergence herbicidal action against AMARE. It counts as in vivo, Amaranthus retroflexus. Particulars: Amaranthus retroflexus, 504 h, scored visually after 3 weeks vs untreated controls, 100% = plants have died, 0% = like control plants. The method in brief:
(§1)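 Greenhouse pots of sandy loam held seeds covered with soil, onto which the compound was applied before emergence. An aqueous suspension or emulsion of WP or EC was used at 600 to 800 l/ha with 0.2% wetting agent. Percent damage was judged visually at 3 weeks.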

Test [1] relates to ECHCG. The experiment in a line: Pre-emergence herbicidal action against ECHCG. Particulars: Echinochloa crus-galli, 504 h, 80 g/ha. The test is classed as in vivo, Echinochloa crus-galli. The method in brief:
as §1

The test system of test [2] is SETVI. The experiment in a line: Pre-emergence herbicidal action against SETVI. The test is classed as in vivo, Setaria viridis. To be noted: Setaria viridis, 504 h, dosage 80 g/ha. The method in brief:
as §1

Test [3] relates to ABUTH. The experiment in a line: Post-emergence herbicidal action against ABUTH. It counts as in vivo, Abutilon theophrasti. Particulars: Abutilon theophrasti, 504 h, visual assessment about 3 weeks after treatment vs untreated controls; for pest or weed control at 5 g/ha: dosage 5 g/ha; for pest or weed control at 20 g/ha: dosage 20 g/ha. The method in brief: (§2)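 Foliar application at one-leaf stage of formulated test compounds, aqueous spray at 600–800 l/ha with 0.2% wetting agent. Greenhouse, optimal conditions, ~3 weeks; damage scored visually in % relative to untreated plants.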

Another test concerns PHBPU. Put plainly: Post-emergence herbicidal action against PHBPU. It counts as in vivo, Pharbitis purpurea. Particulars: Ipomoea purpurea, 504 h, dosage 20 g/ha. In a few lines:
as §2

The test system of test [4] is VIOTR. Put plainly: Pre-emergence herbicidal action against VIOTR. The test is classed as in vivo, Viola tricolor. Particulars: Viola tricolor, 504 h; for pest or weed control at 80 g/ha: dosage 80 g/ha. The method in brief:
as §1

In test [5] the test system is ABUTH. Put plainly: Pre-emergence herbicidal action against ABUTH. It counts as in vivo, Abutilon theophrasti. Particulars: Abutilon theophrasti, 504 h; for pest or weed control at 80 g/ha: scored visually after 3 weeks vs untreated controls (100% = plants have died, 0% = like control plants); for pest or weed control at 20 g/ha: dosage 20 g/ha, scored visually after 3 weeks vs untreated controls, 100% = plants have died, 0% = like control plants, read-out: Pre-emergence action against ABUTH (herbicidal activity in percent). The method in brief: as §1

Test [6] deals with MATIN. Put plainly: Pre-emergence herbicidal action against MATIN. To be noted: Tripleurospermum inodorum, 504 h; for pest or weed control at 20 g/ha: dosage 20 g/ha; for pest or weed control at 80 g/ha: dosage 80 g/ha. The test is classed as in vivo, Matricaria inodora. The method in brief:
as §1

The subject of a further test is DIGSA. Put plainly: Pre-emergence herbicidal action against DIGSA. The test is classed as in vivo, Digitaria sanguinalis. To be noted: Digitaria sanguinalis, 504 h; for pest or weed control at 20 g/ha: dosage 20 g/ha; for pest or weed control at 80 g/ha: dosage 80 g/ha. In a few lines: as §1
In test [7] the test system is ECHCG. Put plainly: Post-emergence herbicidal action against ECHCG. The test is classed as in vivo, Echinochloa crus-galli. To be noted: Echinochloa crus-galli, 504 h; for pest or weed control at 20 g/ha: dosage 20 g/ha. The method in brief:
as §2

The test system of test [8] is VERPE. The experiment in a line: Post-emergence herbicidal action against VERPE. It counts as in vivo, Veronica persica. Particulars: Veronica persica, 504 h. In a few lines: as §2
The test system of another test is POLCO. The experiment in a line: Post-emergence herbicidal action against POLCO. The test is classed as in vivo, Polygonum convolvulus. Particulars: Fallopia convolvulus, 504 h; for pest or weed control at 20 g/ha: dosage 20 g/ha. As for the experimental part:
Seeds of monocotyledonous and dicotyledonous weed and crop plants are laid out in sandy loam soil in wood-fiber pots, covered with soil and cultivated in a greenhouse under good growth conditions. 2 to 3 weeks after sowing, the test plants are treated at the one-leaf stage. The compounds of the invention, formulated in the form of wettable powders (WP) or as emulsion concentrates (EC), are then sprayed onto the green parts of the plants in the form of an aqueous suspension or emulsion at a water application rate equivalent to 600 to 800 l/ha, with addition of 0.2% wetting agent. After the test plants have been left to stand in the greenhouse under optimal growth conditions for about 3 weeks, the action of the preparations is assessed visually in comparison to untreated controls (herbicidal action in percent (%): 100% activity=the plants have died, 0% activity=like control plants). […] The tables below illustrate, in an illustrative manner, the post-emergence herbicidal action of the compounds of the invention, the herbicidal activity being stated in percent.

Test [9] has as its system VIOTR. Put plainly: Post-emergence herbicidal action against VIOTR. It counts as in vivo, Viola tricolor. To be noted: Viola tricolor, 504 h. The method in brief: as §2
Test [10] has as its system MATIN. Put plainly: Post-emergence herbicidal action against MATIN. The test is classed as in vivo, Matricaria inodora. To be noted: Tripleurospermum inodorum, 504 h, dosage 20 g/ha. In a few lines:
as §2

Test [11] deals with SETVI. Put plainly: Post-emergence herbicidal action against SETVI. It counts as in vivo, Setaria viridis. Particulars: Setaria viridis, 504 h, dosage 20 g/ha. The method in brief: as §2
Test [12] has as its system VERPE. Put plainly: Pre-emergence herbicidal action against VERPE. The test is classed as in vivo, Veronica persica. To be noted: Veronica persica, 504 h. The method in brief:
as §1

For the next test, the system named is ALOMY. The experiment in a line: Pre-emergence herbicidal action against ALOMY. The test is classed as in vivo, Alopecurus myosuroides. To be noted: Alopecurus myosuroides, 504 h; 80 g/ha, pre-emergence, scored visually after 3 weeks vs untreated controls (100% = plants have died, 0% = like control plants). The method in brief:
as §1

Each structure is given as a SMILES string.

`CNC(=O)c1c(C(F)F)ccc(C(=O)Nc2nnnn2C)c1OC` [Example 1-72]: the pest or weed control at 20 g/ha in the test with AMARE is 100%; in the test with ABUTH [3] it was 90%; with PHBPU, 80%; in the test on ABUTH [5], 100%; in the test with MATIN [6], 80%; in the test with DIGSA, 90%. The pest or weed control at 20 g/ha with ECHCG [7] came out at 80%; with VERPE [8] it was 90%; in the test with POLCO, 100%; in the test on VIOTR [9], 90%; with MATIN [10] it was 80%; in the test with SETVI [11], 80%. Moreover, the pest or weed control at 80 g/ha in the test on AMARE amounted to 100%; in the test on ECHCG [1] it was 80%; in the test on SETVI [2] it was 100%; in the test with VIOTR [4] it was 100%; in the test on ABUTH [5] it was 100%; with MATIN [6] it was 100%. Moreover, the pest or weed control at 80 g/ha with DIGSA stood at 100%. For the same molecule, the pest or weed control at 5 g/ha is 80% in the test on ABUTH [3], 80% with VERPE [8] and 100% in the test on POLCO (dosage 5 g/ha).
In the case of `CCNC(=O)c1c(C(F)F)ccc(C(=O)Nc2nnnn2C)c1OC` [Example 1-73], the pest or weed control at 20 g/ha was 100% in the test on AMARE; 80% with ABUTH [3]; 80% with VERPE [12] (dosage 20 g/ha); 100% with VIOTR [4] (dosage 20 g/ha); 100% with ABUTH [5]; 90% in the test with MATIN [6]. Besides, the pest or weed control at 20 g/ha in the test on DIGSA stood at 90%; in the test with ECHCG [7] it was 80%; with VERPE [8], 80%; in the test with POLCO it was 80%; in the test with VIOTR [9], 80%; in the test on MATIN [10] it was 80%. The pest or weed control at 80 g/ha with AMARE, in the test with ECHCG [1], with SETVI [2], in the test with VERPE [12] (dosage 80 g/ha), with VIOTR [4] and in the test on ABUTH [5] was 100% each time. Further, the pest or weed control at 80 g/ha in the test with MATIN [6] was determined as 100%; in the test on DIGSA, 100%; in the test with ALOMY it was 80%. Further, the pest or weed control at 5 g/ha in the test on ABUTH [3], with ECHCG [7] (dosage 5 g/ha), with VERPE [8] and in the test on VIOTR [9] (5 g/ha) was 80% in each case.
